Assays:
HCV helicase = molecular target: T1, HCV helicase (Hepatitis C virus genotype 1b, UniProt Q9WMX2); test: MBHA with RNA substrate (HCV helicase-catalyzed RNA unwinding); type: biochemical; details: in words
T1 construct: truncated C-terminally His-tagged NS3 proteins lacking the N-terminal protease, called NS3h; His-tag (C); made in house
From the text: All oligonucleotides were purchased from Integrated DNA Technologies (IDT, Coralville, Iowa). The partially duplex DNA substrates used in MBHAs consisted of a helicase substrate forming 25 base pairs and consists of a 45-mer bottom strand 5′-GCTCCCCGTTCATCGATTGGGGAGC(T)20-3′ (SEQ ID NO:1) and the 25-mer HCV top strand 5′-Cy5-GCTCCCCAATCGATGAACGGGGAGC-IBRQ-3′ (SEQ ID NO:2). The 19 base pair RNA substrate used in MBHAs was composed of a 39 nucleotide long bottom strand 5′-AGU GCC UUG ACG AUA CAG C(U)20-3′ (SEQ ID NO:3) and the 24 nucleotide long top strand 5′-Tye^665-AGUGCGCUGUAUCGUCAAGGCACU-IBRQSp-3′ (SEQ ID NO:4). Underlined areas denote hairpin-forming regions. DNA and RNA substrates were annealed and purified as described previously (Belon & Frick (2008) BioTechniques 45:433-40, 442).
All molecular beacon-based helicase assays (MBHAs) were performed according to known methods (Belon & Frick (2008) supra; Belon & Frick (2009) supra). […] In each flat, black 384-well plate, 56 compounds were tested, in triplicate, along with three negative controls (DMSO only), three positive controls (500 nM dT20), and two wells with no enzyme. Fluorescence was read before ATP (F0) addition and 30 minutes after ATP was added to 1 mM (F30) using a Tecan Infinite M200 fluorescence microplate reader with excitation and emission wavelengths set to 643 and 670 nm, respectively. Percent inhibition was calculated with equation 1, and compound interference in the MBHA was calculated with equation 2.
To monitor helicase reaction kinetics and to calculate IC50 values, MBHAs were performed in 60 μL in white ½ area 96-well plates and measured in a Thermo Varioscan Multimode reader (Thermo Scientific) using the 643 nm excitation wavelength and 667 emission wavelengths. […] Initial reaction velocities were calculated by fitting first-order decay equation to data obtained after ATP addition and calculating an initial velocity form the resulting amplitude and rate constant.

in vitro = type: cell-based; details: human
Procedure: Immortalized human hepatocytes, Fa2N-4 cells (XenoTech) were seeded at ˜50,000 cells/well, and incubated with a range of concentrations (0.01-50 μM) of compound 17, in duplicate, for 24 hours at 37° C., 5% CO2. Cell viability was determined by cellular ATP levels using the Luminescence ATP Detection Assay System (ATPLITE 1 step, Perkin Elmer) and the Infinite M200 plate reader (Tecan). Camptothecin (highly toxic) and Terfenadine (highly non-toxic) were used as standards. Final DMSO concentration was 0.5%.

[1] = tested on: HCV replication complexes in Huh-7.5/HCV Con1sg Rluc cells; test: Indirect immunofluorescence staining of NS5A (replication complexes); type: cell-based, hepatitis C virus; details: 10 μM, 72 hours
Procedure: For indirect immunofluorescence staining, Huh-7.5/HCV Con1sg Rluc cells were plated on cover slips in a 24-well plate. The next day, compounds were added at a 10 μM concentration and after 48 hours from the first addition, the medium was supplemented with 10 μM compound. Interferon alpha-2b was used as positive control at 100 U/well and added at the same time points as compounds. After 72 hours, indirect immunofluorescence staining was performed according to standard methods. Cells were fixed in 1% PFA for 40 minutes, washed thrice with 5 mL PBS, permeabilized with 0.05% saponin (Sigma) and blocked with 3% BSA in PBS for 1 hour at 37° C. Subsequently, cells were washed with 2 mL PBS three times and incubated with mouse monoclonal antibody 9E10 against NS5A diluted in blocking buffer for 1 hour at room temperature. Cells were washed three times with 2 ml PBS and once with 3% BSA. The cells were then incubated with ALEXA 546 conjugated-goat F(ab′)2 anti-mouse immunoglobulin G (IgG) (Invitrogen) for 1 hour at room temperature. Cells were washed twice with PBS and then mounted on glass slides using PROLONG Gold anti-fade reagent (Invitrogen). Appropriate controls were performed to rule out nonspecific binding of primary and secondary antibodies.
Microscopy was performed with a Nikon Ti-E inverted fluorescence microscope using a 20× and 40×/NA 1.4 objective. […]

T1 sequence (Q9WMX2 1192-1657): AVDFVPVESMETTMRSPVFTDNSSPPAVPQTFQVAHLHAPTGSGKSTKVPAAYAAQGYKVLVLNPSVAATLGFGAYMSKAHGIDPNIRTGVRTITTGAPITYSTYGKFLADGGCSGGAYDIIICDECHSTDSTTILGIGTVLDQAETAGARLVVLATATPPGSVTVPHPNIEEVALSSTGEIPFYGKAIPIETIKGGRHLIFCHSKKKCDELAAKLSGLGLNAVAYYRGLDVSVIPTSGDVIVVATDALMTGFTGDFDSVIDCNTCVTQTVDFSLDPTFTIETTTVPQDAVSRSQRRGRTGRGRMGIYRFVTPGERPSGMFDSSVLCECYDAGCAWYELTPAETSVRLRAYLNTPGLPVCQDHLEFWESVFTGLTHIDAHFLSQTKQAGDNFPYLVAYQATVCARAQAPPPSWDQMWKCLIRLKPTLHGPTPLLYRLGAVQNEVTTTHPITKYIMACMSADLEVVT

Row | Structure (SMILES) | effect on HCV helicase catalyzed RNA unwinding (HCV helicase) | CC50 at 24 h (in vitro) | number of HCV replication complexes (NS5A staining) [1]
1 | Cc1ccc2nc(-c3ccc4nc(-c5ccc(NC(=O)c6cccc(Cl)c6)cc5)sc4c3)sc2c1S(=O)(=O)O [Compound 17, 2′-(4-(3-chlorobenzamido)phenyl)-6-methyl-[2,6′-bibenzo[d]thiazole]-7-sulfonic acid] | inhibited HCV helicase-catalyzed RNA-unwinding | > 50 µM | –
2 | Cc1ccc2nc(-c3ccc4nc(-c5ccc(NC(=O)c6cc(C(F)(F)F)cc(C(F)(F)F)c6)cc5)sc4c3)sc2c1S(=O)(=O)O [Compound 24, 2′-(4-(3,5-bis(trifluoromethyl)benzamido)phenyl)-6-methyl-[2,6′-bibenzo[d]thiazole]-7-sulfonic acid] | – | – | lower number of replication complexes

From patent publication US9464064B2, “HCV helicase inhibitors and methods of use thereof” (University of Kansas, priority 2011, dated 2016)
